Experimental data reported in ChEMBL document CHEMBL3286249 (Eur J Med Chem, 2014).

These compounds were tested against Carbonic anhydrase 12 (Homo sapiens, UniProt O43570).
Sequence of Carbonic anhydrase 12 (O43570 whole entry): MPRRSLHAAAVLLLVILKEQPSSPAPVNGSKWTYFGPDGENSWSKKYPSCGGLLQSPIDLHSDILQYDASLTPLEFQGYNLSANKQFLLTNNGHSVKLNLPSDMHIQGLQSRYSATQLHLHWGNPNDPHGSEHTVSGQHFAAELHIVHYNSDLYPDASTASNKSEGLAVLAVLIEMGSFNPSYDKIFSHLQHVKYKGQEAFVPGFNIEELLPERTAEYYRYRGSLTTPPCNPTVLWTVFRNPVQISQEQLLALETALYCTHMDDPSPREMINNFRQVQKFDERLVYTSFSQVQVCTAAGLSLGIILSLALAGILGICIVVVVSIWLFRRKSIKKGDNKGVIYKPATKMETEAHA
Work on `Cc1nnc(-c2cc(S(N)(=O)=O)c(Cl)cc2Cl)o1` yielded a Ki of 6.3 nM.

Each compound was assayed against Carbonic anhydrase 2 (Homo sapiens, UniProt P00918).
`Cc1nnc(-c2cc(S(N)(=O)=O)c(Cl)cc2Cl)o1` was tested, and the Ki was 8.7 nM.

The compounds below were run against Carbonic anhydrase 1 (Homo sapiens, UniProt P00915).
Sequence of Carbonic anhydrase 1 (P00915 whole entry): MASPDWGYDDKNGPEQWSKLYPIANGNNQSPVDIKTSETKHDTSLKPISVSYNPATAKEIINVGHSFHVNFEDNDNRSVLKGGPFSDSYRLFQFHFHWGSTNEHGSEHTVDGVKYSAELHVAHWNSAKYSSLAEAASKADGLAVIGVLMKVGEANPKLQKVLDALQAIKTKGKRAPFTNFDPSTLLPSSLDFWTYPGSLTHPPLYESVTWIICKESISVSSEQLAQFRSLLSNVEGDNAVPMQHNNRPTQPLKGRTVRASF
`Cc1nnc(-c2cc(S(N)(=O)=O)c(Cl)cc2Cl)o1` gave a Ki of 718 nM.

These compounds were tested against Carbonic anhydrase 9 (Homo sapiens, UniProt Q16790).
With `NS(=O)(=O)c1cc(-c2nnc(-c3ccccc3)[nH]2)c(Cl)cc1Cl` the Ki was 9.7 nM. `NS(=O)(=O)c1cc(-c2nnc(Nc3ccccc3)o2)c(Cl)cc1Cl` gave a Ki of 13.8 nM. `NS(=O)(=O)c1cc(-c2nnc(Nc3ccc(Cl)cc3)o2)c(Cl)cc1Cl` was tested, and the Ki was 15.1 nM. Work on `NS(=O)(=O)c1cc(-c2nnc(-c3ccccc3)o2)c(Cl)cc1Cl` yielded a Ki of 13.2 nM. In the case of `NS(=O)(=O)c1cc(-c2nnc(-c3ccc(Cl)cc3)o2)c(Cl)cc1Cl`, the Ki is reported as 10.9 nM. `NS(=O)(=O)c1cc(-c2nnc(-c3ccccc3)s2)c(Cl)cc1Cl` was tested, and the Ki was 13.6 nM. For `NS(=O)(=O)c1cc(NC(=O)Nc2ccccc2)c(Cl)cc1Cl`, the Ki was 7 nM. `NS(=O)(=O)c1cc(NC(=O)Nc2ccc(Cl)cc2)c(Cl)cc1Cl` showed a Ki of 7.1 nM. In the case of `NS(=O)(=O)c1ccc(NC(=O)Nc2cc(S(N)(=O)=O)c(Cl)cc2Cl)cc1`, the Ki is reported as 15.8 nM. Compound `NS(=O)(=O)c1cc(NC(=O)NOCc2ccccc2)c(Cl)cc1Cl` has a Ki of 18.9 nM. In the case of `NS(=O)(=O)c1cc(NC(=O)NNC(=O)c2ccccc2)c(Cl)cc1Cl`, the Ki is reported as 12.5 nM. `NS(=O)(=O)c1cc(NC(=O)NCCCN2CCOCC2)c(Cl)cc1Cl` gave a Ki of 38 nM. `NS(=O)(=O)c1cc(NC(=O)N2CCN(Cc3ccc4c(c3)OCO4)CC2)c(Cl)cc1Cl` showed a Ki of 76 nM. With `NS(=O)(=O)c1cc(C(=O)NNC(=S)Nc2ccccc2)c(Cl)cc1Cl` the Ki was 31 nM. Work on `NS(=O)(=O)c1cc(C(=O)NNC(=S)Nc2ccc(Cl)cc2)c(Cl)cc1Cl` yielded a Ki of 27 nM. `Cc1ccc(S(=O)(=O)NC(=O)NNC(=O)c2cc(S(N)(=O)=O)c(Cl)cc2Cl)cc1` showed a Ki of 15.3 nM. For `NS(=O)(=O)c1cc(C(=O)NNC(=O)c2ccco2)c(Cl)cc1Cl`, the Ki was 3.9 nM. Work on `NS(=O)(=O)c1cc(C(=O)NNC(=O)c2ccccc2)c(Cl)cc1Cl` yielded a Ki of 10.2 nM. Work on `Cc1ccc(C(=O)NNC(=O)c2cc(S(N)(=O)=O)c(Cl)cc2Cl)cc1` yielded a Ki of 5.5 nM.
